Patent US20160108008A1, “Substituted N-(Tetrazol-5-yl)- and N-(Triazol-5-yl)arylcarboxamide Compounds and Their Use as Herbicides” (BASF SE, priority 2013, published 2016)
Marks after values point to notes of the source that are not given here.

Key:
Format in all cases: in vivo
Amaranthus retroflexus [1] = assay: greenhouse post-emergence treatment, AMARE; conditions: scale 0-100
Text: (§1) The culture containers used were plastic flowerpots containing loamy sand with approximately 3.0% of humus as the substrate. The seeds of the test plants were sown separately for each species.
(§2) For the post-emergence treatment, the test plants were first grown to a height of 3 to 15 cm, depending on the plant habit, and only then treated with the active ingredients which had been suspended or emulsified in water. For this purpose, the test plants were either sown directly and grown in the same containers, or they were first grown separately as seedlings and transplanted into the test containers a few days prior to treatment.
(§3) Depending on the species, the plants were kept at 10-25° C. or 20-35° C. The test period extended over 2 to 4 weeks. During this time, the plants were tended, and their response to the individual treatments was evaluated.
(§4) Evaluation was carried out using a scale from 0 to 100. 100 means no emergence of the plants, or complete destruction of at least the aerial moieties, and 0 means no damage, or normal course of growth. A good herbicidal activity is given at values of at least 70 and a very good herbicidal activity is given at values of at least 85.
(§5) The plants used in the greenhouse experiments belonged to the following species:
(§6) Following representative compounds of formula I according to Table 9 were used in post-emergence treatments in greenhouse experiments (values labeled with * result from pre-emergence experiments): […]

Chenopodium album = assay: greenhouse post-emergence treatment, CHEAL; conditions: scale 0-100
Text: as §1, §2, §3, §4, §5, §6

Echinochloa crus-galli = assay: greenhouse post-emergence treatment, ECHCG; conditions: scale 0-100
Text: as §1, §2, §3, §4, §5, §6

Agrostis spica-venti = assay: greenhouse pre-emergence treatment, APESV; conditions: pre-emergence (value labeled *), scale 0-100
Text: as §1
(§7) For the pre-emergence treatment, the active ingredients, which had been suspended or emulsified in water, were applied directly after sowing by means of finely distributing nozzles. The containers were irrigated gently to promote germination and growth and subsequently covered with transparent plastic hoods until the plants had rooted. This cover caused uniform germination of the test plants, unless this has been impaired by the active ingredients.
as §3, §4, §5, §6

Abutilon theophrasti = assay: greenhouse pre-emergence treatment, ABUTH; conditions: pre-emergence (value labeled *), scale 0-100
Text: as §1, §7, §3, §4, §5, §6

Polygonum convolvulus = assay: greenhouse post-emergence treatment, POLCO; conditions: scale 0-100
Text: as §1, §2, §3, §4, §5, §6

Amaranthus retroflexus [2] = assay: greenhouse pre-emergence treatment, AMARE; conditions: pre-emergence (value labeled *), scale 0-100
Text: as §1, §7, §3, §4, §5, §6

SMILES	[%] damage to weed III (AMARE) (Amaranthus retroflexus [1]; 250 g/ha)	[%] damage to weed VI (CHEAL) (Chenopodium album; 250 g/ha)	[%] damage to weed VII (ECHCG) (Echinochloa crus-galli; 250 g/ha)	[%] damage to weed I (ABUTH) (Abutilon theophrasti; 250 g/ha)	also measured
CCCn1ncnc1NC(=O)c1c(F)cc(Cl)c(SC)c1Cl [compound 62]	100%	100%	98%		[%] damage to weed IV (APESV) (Agrostis spica-venti; 250 g/ha): 80* %
CCn1nnnc1NC(=O)c1c(F)cc(Cl)c(OCCOC)c1Cl [compound 71]	98%	100%	80%	100* %	
CCSc1c(Cl)cc(F)c(C(=O)Nc2nnnn2C)c1Cl [compound 12, 2,4-dichloro-3-ethylsulfanyl-6-fluoro-N-(1-methyltetrazol-5-yl)benzamide]	100%	100%		100* %	[%] damage to weed IX (POLCO) (Polygonum convolvulus; 250 g/ha): 100%
CSc1ccc(Cl)c(C(=O)Nc2ncnn2C)c1Cl [compound 81]	100%	100%	98%		[%] damage to weed IV (APESV) (Agrostis spica-venti; 250 g/ha): 95* %
Cc1c(C(=O)Nc2ncnn2C)cc(F)cc1S(C)(=O)=O [compound 10]	100; %	100%			[%] damage to weed IX (POLCO) (Polygonum convolvulus; 250 g/ha): 100%; [%] damage to weed III (AMARE) (Amaranthus retroflexus [2]; 250 g/ha): 95* %
CCS(=O)(=O)c1c(Cl)cc(F)c(C(=O)Nc2nnnn2CCOC)c1Cl [compound 80]					[%] damage to weed III (AMARE) (Amaranthus retroflexus [1]; 125 g/ha): 100%; [%] damage to weed VI (CHEAL) (Chenopodium album; 125 g/ha): 100%; [%] damage to weed VII (ECHCG) (Echinochloa crus-galli; 125 g/ha): 100%; [%] damage to weed I (ABUTH) (Abutilon theophrasti; 125 g/ha): 100* %
CCCSc1c(Cl)cc(F)c(C(=O)Nc2nnnn2C)c1Cl [compound 21]					[%] damage to weed III (AMARE) (Amaranthus retroflexus [1]; 243 g/ha): 100%; [%] damage to weed VI (CHEAL) (Chenopodium album; 243 g/ha): 100%; [%] damage to weed VII (ECHCG) (Echinochloa crus-galli; 243 g/ha): 100%; [%] damage to weed I (ABUTH) (Abutilon theophrasti; 243 g/ha): 100* %
CCOc1c(Cl)cc(F)c(C(=O)Nc2nnnn2C)c1Cl [compound 18]	85%	100%	98%	100* %	
CC[S+]([O-])c1c(Cl)cc(F)c(C(=O)Nc2nnnn2C)c1Cl (stereo not drawn) [compound 16, 2,4-Dichloro-3-ethylsulfinyl-6-fluoro-N-(1-methyltetrazol-5-yl)benzamide]	100%	100%		100* %	[%] damage to weed IX (POLCO) (Polygonum convolvulus; 250 g/ha): 100%
COCCOc1c(Cl)cc(F)c(C(=O)Nc2ncnn2C)c1Cl [compound 69]	98%	100%		100* %	[%] damage to weed IX (POLCO) (Polygonum convolvulus; 250 g/ha): 98%
COCCn1nnnc1NC(=O)c1c(F)cc(Cl)c([S+](C)[O-])c1Cl (stereo not drawn) [compound 74]					[%] damage to weed III (AMARE) (Amaranthus retroflexus [1]; 110 g/ha): 100%; [%] damage to weed VI (CHEAL) (Chenopodium album; 110 g/ha): 100%; [%] damage to weed VII (ECHCG) (Echinochloa crus-galli; 110 g/ha): 100%; [%] damage to weed I (ABUTH) (Abutilon theophrasti; 110 g/ha): 98* %
COCCOc1c(Cl)cc(F)c(C(=O)Nc2nnnn2C)c1Cl [compound 70]	98%	100%	95%	100* %	
COCCn1nnnc1NC(=O)c1c(Cl)cc(F)c(SC)c1F [compound 99]	100; %	100%	100%		[%] damage to weed III (AMARE) (Amaranthus retroflexus [2]; 250 g/ha): 100* %
CCSc1c(F)cc(Cl)c(C(=O)Nc2nnnn2C)c1F [compound 97]	100; %	100%	100%		[%] damage to weed III (AMARE) (Amaranthus retroflexus [2]; 250 g/ha): 100* %
CC[S+]([O-])c1c(Cl)cc(F)c(C(=O)Nc2ncnn2C)c1Cl (stereo not drawn) [compound 14]	100%	100%		100* %	[%] damage to weed IX (POLCO) (Polygonum convolvulus; 250 g/ha): 100%
COc1c(Cl)cc(F)c(C(=O)Nc2nnnn2C)c1Cl [compound 9]					[%] damage to weed III (AMARE) (Amaranthus retroflexus [1]; 196 g/ha): 100%; [%] damage to weed VI (CHEAL) (Chenopodium album; 196 g/ha): 100%; [%] damage to weed I (ABUTH) (Abutilon theophrasti; 196 g/ha): 100* %
CSc1c(F)cc(Cl)c(C(=O)Nc2ncnn2C)c1F [compound 94]	100%	100%	95%		[%] damage to weed IV (APESV) (Agrostis spica-venti; 250 g/ha): 90* %
CCCSc1c(Cl)cc(F)c(C(=O)Nc2ncnn2C)c1Cl [compound 22]	100: %	100%	100%		[%] damage to weed III (AMARE) (Amaranthus retroflexus [2]; 250 g/ha): 80* %
CCOc1c(Cl)cc(F)c(C(=O)Nc2nnnn2CC)c1Cl [compound 63]					[%] damage to weed III (AMARE) (Amaranthus retroflexus [1]; 500 g/ha): 100; %; [%] damage to weed VI (CHEAL) (Chenopodium album; 500 g/ha): 100%; [%] damage to weed IX (POLCO) (Polygonum convolvulus; 500 g/ha): 98%; [%] damage to weed III (AMARE) (Amaranthus retroflexus [2]; 500 g/ha): 100* %
COCCOc1ccc(Cl)c(C(=O)Nc2nnnn2C)c1Cl [compound 86]					[%] damage to weed III (AMARE) (Amaranthus retroflexus [1]; 500 g/ha): 100%; [%] damage to weed VI (CHEAL) (Chenopodium album; 500 g/ha): 100%; [%] damage to weed VII (ECHCG) (Echinochloa crus-galli; 500 g/ha): 98%; [%] damage to weed I (ABUTH) (Abutilon theophrasti; 500 g/ha): 65* %; [%] damage to weed IV (APESV) (Agrostis spica-venti; 500 g/ha): 98* %
CCSc1c(Cl)cc(Cl)c(C(=O)Nc2ncnn2C)c1Cl [compound 61]					[%] damage to weed III (AMARE) (Amaranthus retroflexus [1]; 500 g/ha): 100%; [%] damage to weed VI (CHEAL) (Chenopodium album; 500 g/ha): 100%; [%] damage to weed VII (ECHCG) (Echinochloa crus-galli; 500 g/ha): 98%; [%] damage to weed IV (APESV) (Agrostis spica-venti; 500 g/ha): 98* %
CCSc1c(Cl)cc(F)c(C(=O)Nc2ncnn2C)c1Cl [compound 11]	100%	100%		100* %	[%] damage to weed IX (POLCO) (Polygonum convolvulus; 250 g/ha): 100%
CCOc1c(Cl)cc(F)c(C(=O)Nc2nnnn2CCOC)c1Cl [compound 19]	100%	100%	100%	100* %	
CCS(=O)(=O)c1c(Cl)cc(F)c(C(=O)Nc2nnnn2C)c1Cl [compound 13, 2,4-Dichloro-3-ethylsulfonyl-6-fluoro-N-(1-methyltetrazol-5-yl)benzamide]	100%	100%		100* %	[%] damage to weed IX (POLCO) (Polygonum convolvulus; 250 g/ha): 100%
